In publication PMC6540907, “The nuclear export inhibitor aminoratjadone is a potent effector in extracellular-targeted drug conjugates” (Chemical Science, 2019):

Assays:
[1] = parameters: method as in PMID 8761384; conditions: standalone drug; cited from earlier work
nuclear export = tested on: nuclear export; parameters: method as in PMID 20055390, PMID 26833854; conditions: cited from earlier work
CRM1 [2] = biological target: T1, CRM1 (Homo sapiens, UniProt O14980); experiment: Streptavidin pull-down from HeLa cell lysate with LC-MS/MS identification; type: binding; parameters: endogenous in cells; host or cells: HeLa cells (treated live with biotin conjugate 36, then lysed); conditions: HeLa cells, 100 ng mL–1, 5 h; control additionally incubated with an excess of 1
Method: To verify that this activity was indeed CRM1-mediated, HeLa cells were incubated with 36 at a concentration of 100 ng mL^–1 for 5 h and lysed.
The cell lysate was incubated with streptavidin-coupled sepharose beads, and bound proteins were eluted, digested and identified by LC-MS/MS.
Streptavidin-Pull-down with Ratjadone-biotin and identification of exportin by LC-MSMS A chemical pull down was performed to verify binding of ratjadone to Crm1. HeLa cells were treated with ratjadone-biotin, ratjadone or both at 0.1μg/ml final concentration for 5h. Cells were detached by scraping, washed twice in PBS and lysed in MPER-buffer (Thermo Fisher, Waltham, USA) supplemented with complete protease inhibitor (Roche, Mannheim, Germany). After 5min incubation on ice the lysate was centrifuged (20min, 13000rpm, 4°C) and the supernatant was incubated with streptavidin sepharose high performance (GE healthcare, Freiburg, Germany) overnight at 4°C. The next day beads were washed twice with PBS and resuspended in elution buffer (Roth) and heated to 95°C for 10min. 5% were tested on WesternBlot with a biotin-specific antibody.
Figure S12: Gel of α-Streptavidin pulldown experiment: Identification of protein band in the eluat of Biotin-PEG3-16S- […]

CRM1 [3] = biological target: T1, CRM1; experiment: Nuclear export inhibition, fluorescent translocation biosensor in recombinant HeLa cells; type: cell-based; parameters: This cellular assay uses HeLa cells that express a recombinant fusion protein; endogenous in cells; host or cells: HeLa cells stably expressing the NLS-GST-GFP-RevNES translocation biosensor (HeLaRevBio); conditions: nuclear export inhibition IC50, HeLa cells expressing translocation biosensor, 1 h incubation
KB-3.1 cells = experiment: Flow cytometry, fluorescence intensity per cell; type: cell-based, human; conditions: KB-3.1, 1 µM, 30 min, 37 °C
Method: Analysis of cell labeling with fluorescein-labeled conjugates
All cell lines were maintained as recommended by the American Type Culture Collection in DMEM or RPMI
containing 5% glutamine (Thermo Fisher Scientific, Waltham, USA) supplemented with 10% FBS (Thermo
Fisher Scientific, Waltham, USA). For flow cytrometric analysis cells were detached by trypsin and the
density was adjusted to 2 x 10^6 cells/ml. The cell suspension was incubated with compounds at 1µM final
concentration for 30min at 37°C, followed by two washing steps in PBS. For analysis of fluorescein intensity
a LSRFortessa™ with FACSDiva™ software (BD Biosciences, Heidelberg, Germany) with the 488nm laser in
combination with 525/50nm band pass filter was used. Data was evaluated using FlowJo software
(FLOWJO LLC, Oregon, US).

folate receptor-α, FRα = biological target: folate receptor-α, FRα; parameters: method as in ref 31 = [31]; Lu Y. Low P. S. Adv. Drug Delivery Rev. 2012 64 342 352; conditions: read-out: folate affinity of the receptors; cited from earlier work

T1 sequence (O14980 whole entry): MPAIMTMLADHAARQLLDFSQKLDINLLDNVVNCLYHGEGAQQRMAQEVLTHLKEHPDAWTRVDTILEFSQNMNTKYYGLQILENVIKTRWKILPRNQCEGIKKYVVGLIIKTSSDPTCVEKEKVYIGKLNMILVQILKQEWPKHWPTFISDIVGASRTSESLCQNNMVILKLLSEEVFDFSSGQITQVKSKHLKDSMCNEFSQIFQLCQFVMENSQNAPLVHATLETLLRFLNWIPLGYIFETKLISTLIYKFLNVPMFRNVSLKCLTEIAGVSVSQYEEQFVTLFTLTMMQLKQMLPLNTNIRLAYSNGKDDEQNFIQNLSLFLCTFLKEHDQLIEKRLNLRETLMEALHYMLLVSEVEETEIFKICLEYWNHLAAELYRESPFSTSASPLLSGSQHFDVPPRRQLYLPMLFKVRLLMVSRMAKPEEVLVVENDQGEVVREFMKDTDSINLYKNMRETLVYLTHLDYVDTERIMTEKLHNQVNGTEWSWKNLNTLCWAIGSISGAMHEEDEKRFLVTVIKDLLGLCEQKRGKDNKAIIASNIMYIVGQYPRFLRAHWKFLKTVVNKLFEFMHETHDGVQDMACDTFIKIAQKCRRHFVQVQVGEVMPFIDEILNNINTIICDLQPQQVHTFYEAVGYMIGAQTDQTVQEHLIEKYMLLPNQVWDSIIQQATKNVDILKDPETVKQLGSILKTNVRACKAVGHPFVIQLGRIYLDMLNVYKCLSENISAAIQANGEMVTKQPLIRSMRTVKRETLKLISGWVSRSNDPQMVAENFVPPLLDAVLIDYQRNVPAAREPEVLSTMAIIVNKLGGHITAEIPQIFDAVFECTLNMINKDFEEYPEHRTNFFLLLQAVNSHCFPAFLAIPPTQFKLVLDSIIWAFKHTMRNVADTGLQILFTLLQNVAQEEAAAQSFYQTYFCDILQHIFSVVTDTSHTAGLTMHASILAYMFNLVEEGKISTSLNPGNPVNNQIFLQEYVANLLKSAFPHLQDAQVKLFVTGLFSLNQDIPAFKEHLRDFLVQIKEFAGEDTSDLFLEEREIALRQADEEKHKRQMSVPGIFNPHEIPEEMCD

CCC(=C/[C@H](C)C/C=C/C(C)=C/[C@@H](C)C(=O)[C@@H](C)[C@H](O)[C@@H](C)C/C(C)=C/C(=O)O)/C=C/[C@@H]1OC(=O)C=C[C@@H]1C [Compound 5, leptomycin B]
outcome of early clinical trials [1]: failed due to its high systemic toxicity

CCC(=C/C(C)C)/C=C/[C@H]1CC=CC(=O)O1 [Compound 8]
concentration at which nuclear export is inhibited (nuclear export): 25 nM

CC=CC1OC(C(C=CC=C(C)CC(C)C=C(C)C=CC2CC=CC(=O)O2)NC(=O)OCCc2cn(CCOCCOCCOCCNC(=O)CCCCC3SCC4NC(=O)NC43)nn2)CC(O)C1C (stereo not drawn) [Compound 36, biotin-PEG3-16S-aminoratjadone]
CRM1 identified in streptavidin pull-down (CRM1 [2]): clearly identified in this manner and strongly enriched | IC50 (CRM1 [3]): 152 nM

O=C1OC2(c3ccc(O)cc3Oc3cc(O)ccc32)c2ccccc21 [fluorescein]
fluorescence intensity per cell (KB-3.1 cells): did not label the cells
